# Test system: SW620 cells
# Assay: ROS generation, dihydrorhodamine 123 oxidation assay
# Format: cell-based, human
# Conditions: SW620, 1 μM compound, 4 h, DHR123 with 10 μM verapamil; vs control or (R)- and (S)-1
# From the text: Metal complexes often induce reactive oxygen species (ROS) generation in cells,[51] which may increase their cytotoxic activity compared to purely organic molecules. To study the impact of the synthesized compounds on ROS production, we have measured the ROS generation in SW620 cells by the dihydrorhodamine 123 (DHR123) oxidation assay (Figure 9). However, there is no correlation between the antiproliferative potential and the ability of a compound to generate ROS.
# Dihydrorhodamine 123 oxidation was used as an indicator of intracellular ROS production. For this purpose, SW620 cells were seeded in 6-well plates at a density of 10^5 cells per well. The cells were left overnight (time needed for them to attach to the surface). Then, 1 μM tested compounds were added along with 1 μM DHR123. Additionally, since DHR123 is a substrate of ABCB1 (which may interfere in this assay), 10 μM verapamil, an inhibitor of this protein, was added. The cells were cultured for an additional 4 h at 37 °C, and then the cells were harvested by trypsinization, resuspended in a complete medium, and analyzed using a LSRII flow cytometer (Becton Dickinson) in a FITC channel (530/30 nm). The results are presented as a percentage of control (median fluorescence in the presence of DMSO).
smiles,measurement,value
"CC(C)[C@@H](N=Cc1ccccn1)c1nc2cc(Cl)ccc2c(=O)n1Cc1ccccc1.Cc1ccc(C(C)C)cc1.F[P-](F)(F)(F)(F)F.[Cl-].[Ru+2] [Compound 3a, [(cym)Ru((R)-2)Cl]PF6]",ROS generation (in words),increase the level of ROS

# From article PMC11044151, “Development of Half-Sandwich Ru, Os, Rh, and Ir Complexes Bearing the Pyridine-2-ylmethanimine Bidentate Ligand Derived from 7-Chloroquinazolin-4(3H)-one with Enhanced Antiproliferative Activity” (ACS Omega, 2024)
